The target in one assay is c-Kit(V654A) (Homo sapiens, UniProt P10721, V654A). Nature of the assay: c-Kit(V654A) assay. Conditions: Table 1; 200 μM ATP. It is filed as biochemical. The essentials:
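Radiometric filter-binding read-out: after 3% phosphoric acid stop, peptide-incorporated 33P on filtermat scintillation-counted. Enzyme: human c-Kit V654A, residues 544–end, N-terminal GST fusion.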

Assay [1] addresses mutant cKIT (560-576 and V654A) in GIST430/654 cell line (Homo sapiens (Human), UniProt P10721, DEL560-576/V654A). The assay can be described thus: Cellular testing of cKIT mutant inhibitors: phospho-Y307-cKIT Luminex assay in GIST430/654 cells. It is filed as cell-based. Conditions: Table 1; cKIT autophosphorylation, compounds 45 min; read-out: GIST 430/654 IC50. The essentials: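 Autophosphorylation of mutant cKIT at Y307 was quantified by a Luminex bead sandwich assay (total-cKIT capture, phosphospecific detection) after 45 min compound exposure in GIST430/654 cells, cultured in medium containing 100 nM imatinib. Signals were normalised to solvent (0.3% DMSO) controls and dose-response curves fitted for IC50.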

Chain of mutant cKIT (560-576 and V654A) in GIST430/654 cell line (P10721 other isoform, or with tags, fused parts or gaps V654A/del 1-25/del 560-576 limits assumed): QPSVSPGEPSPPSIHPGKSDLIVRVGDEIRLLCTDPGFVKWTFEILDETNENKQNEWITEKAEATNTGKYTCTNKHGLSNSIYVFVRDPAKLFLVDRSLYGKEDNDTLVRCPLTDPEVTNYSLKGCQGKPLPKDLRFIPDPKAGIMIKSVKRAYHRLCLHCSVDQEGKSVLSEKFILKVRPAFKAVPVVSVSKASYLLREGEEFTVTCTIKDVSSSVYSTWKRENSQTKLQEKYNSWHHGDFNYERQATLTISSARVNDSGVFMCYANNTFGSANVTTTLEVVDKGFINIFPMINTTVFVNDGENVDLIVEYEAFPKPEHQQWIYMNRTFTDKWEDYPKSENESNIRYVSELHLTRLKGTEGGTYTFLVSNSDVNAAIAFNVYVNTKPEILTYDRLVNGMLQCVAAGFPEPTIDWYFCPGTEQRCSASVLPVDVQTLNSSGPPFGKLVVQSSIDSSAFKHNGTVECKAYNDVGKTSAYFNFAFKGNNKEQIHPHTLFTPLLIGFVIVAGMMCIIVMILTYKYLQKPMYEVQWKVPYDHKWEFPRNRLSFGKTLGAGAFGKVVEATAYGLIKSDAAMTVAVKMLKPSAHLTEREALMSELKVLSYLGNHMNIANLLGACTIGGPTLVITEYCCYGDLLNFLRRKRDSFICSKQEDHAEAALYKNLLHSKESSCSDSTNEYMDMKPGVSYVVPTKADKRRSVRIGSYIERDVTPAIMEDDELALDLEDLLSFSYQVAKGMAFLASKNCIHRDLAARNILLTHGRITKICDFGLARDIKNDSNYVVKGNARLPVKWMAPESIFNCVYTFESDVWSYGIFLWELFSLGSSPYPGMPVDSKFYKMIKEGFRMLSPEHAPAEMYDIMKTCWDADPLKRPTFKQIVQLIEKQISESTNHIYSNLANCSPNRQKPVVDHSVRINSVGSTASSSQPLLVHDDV

On to `COCCOc1cc2[nH]nc(-c3cc(-c4ccc(C(=O)N5CCC[C@H]5C(C)(C)O)nc4)no3)c2cc1F` [A107, 2-[(2S)-1-(5-{5-[5-fluoro-6-(2-methoxyethoxy)-1H-indazol-3-yl]-1,2-oxazol-3-yl}pyridine-2-carbonyl)pyrrolidin-2-yl]propan-2-ol], for which the IC50 turned out to be 5.6 nM at c-Kit(V654A) and 53 nM in assay [1].

Take `COCCOc1cc2[nH]nc(-c3cc(-c4ccc(C(=O)N5C6CC5CS(=O)(=O)C6)cc4)no3)c2cc1F` [A108, 6-(4-{5-[5-fluoro-6-(2-methoxyethoxy)-1H-indazol-3-yl]-1,2-oxazol-3-yl}benzoyl)-3lambda6-thia-6-azabicyclo[3.1.1]heptane-3,3-dione]: the IC50 came out at 0.81 nM on c-Kit(V654A) and 56 nM in assay [1].

Consider `COCCOc1cc2[nH]nc(-c3cc(-c4ccc(C(=O)N5CCC[C@@H]5C(C)(C)O)nc4)no3)c2cc1F` [A109, (5-{5-[5-fluoro-6-(2-methoxy-ethoxy)-1H-indazol-3-yl]-isoxazol-3-yl}-pyridin-2-yl)-[(R)-2-(1-hydroxy-1-methyl-ethyl)-pyrrolidin-1-yl]-methanone], for which the IC50 on c-Kit(V654A) was determined as 9.1 nM; in assay [1], 430 nM.

For `COCCOc1cc2[nH]nc(-c3cc(-c4ccc(C(=O)N5CCOC[C@@H]5COC)cc4)no3)c2cc1F` [A110, 5-fluoro-6-(2-methoxyethoxy)-3-(3-{4-[(3S)-3-(methoxymethyl)morpholine-4-carbonyl]phenyl}-1,2-oxazol-5-yl)-1H-indazole], the IC50 came out at 0.76 nM at c-Kit(V654A) and 50 nM in assay [1].

`COCCOc1cc2[nH]nc(-c3cc(-c4ccc(C(=O)N5CCOC[C@H]5COC)cc4)no3)c2cc1F` [A111, 5-fluoro-6-(2-methoxyethoxy)-3-(3-{4-[(3R)-3-(methoxymethyl)morpholine-4-carbonyl]phenyl}-1,2-oxazol-5-yl)-1H-indazole]: the IC50 was determined as 1.2 nM against c-Kit(V654A) and 62 nM in assay [1].

Regarding `COCCOc1cc2[nH]nc(-c3cc(-c4ccc(C(=O)N5CCC56COC6)cc4)no3)c2cc1F` [A112, 5-fluoro-6-(2-methoxyethoxy)-3-[3-(4-{6-oxa-1-azaspiro[3.3]heptane-1-carbonyl}phenyl)-1,2-oxazol-5-yl]-1H-indazole], the IC50 against c-Kit(V654A) was found to be 1.3 nM; in assay [1], 32 nM.

Take `COCCOc1cc2[nH]nc(-c3cc(-c4ccc(C(=O)N5CCN(C)CC5)cc4)on3)c2cc1F` [A113, (4-{3-[5-fluoro-6-(2-methoxy-ethoxy)-1H-indazol-3-yl]-isoxazol-5-yl}-phenyl)-(4-methyl-piperazin-1-yl)-methanone]: the IC50 on c-Kit(V654A) was 2.6 nM; in assay [1], 82 nM.

As to `COCCOc1cc2[nH]nc(-c3cc(-c4ccc(C(=O)N5CCOC[C@H]5C)cc4)no3)c2cc1F` [A114, 5-fluoro-6-(2-methoxyethoxy)-3-(3-{4-[(3R)-3-methylmorpholine-4-carbonyl]phenyl}-1,2-oxazol-5-yl)-1H-indazole], the IC50 against c-Kit(V654A) was 0.91 nM; in assay [1], 56 nM.

On to `COCCOc1cc2[nH]nc(-c3cc(-c4ccc(C(=O)N5CCOC[C@@H]5C)cc4)no3)c2cc1F` [A115, 5-fluoro-6-(2-methoxyethoxy)-3-(3-{4-[(3S)-3-methylmorpholine-4-carbonyl]phenyl}-1,2-oxazol-5-yl)-1H-indazole], for which the IC50 on c-Kit(V654A) turned out to be 0.83 nM; in assay [1] it was 45 nM.

In the case of `COCCOc1cc2[nH]nc(-c3cc(-c4ccc(C(=O)N5CCN(C)C(=O)C5)cc4)no3)c2cc1F` [A116, 4-(4-{5-[5-fluoro-6-(2-methoxyethoxy)-1H-indazol-3-yl]-1,2-oxazol-3-yl}benzoyl)-1-methylpiperazin-2-one], the IC50 was 4.1 nM on c-Kit(V654A) and 120 nM in assay [1].

For the compound `COc1cc2[nH]nc(-c3cc(-c4ccc(C(=O)N5CCC[C@H]5CS(C)(=O)=O)cc4)no3)c2cc1F` [A117, 5-fluoro-3-(3-{4-[(2S)-2-(methanesulfonylmethyl)pyrrolidine-1-carbonyl]phenyl}-1,2-oxazol-5-yl)-6-methoxy-1H-indazole], the values for the IC50 (against c-Kit(V654A); in assay [1]) were 3.6 nM and 100 nM, respectively.

`COCCOc1cc2[nH]nc(-c3cc(-c4ccc(C(=O)N5CC[C@H]5C(C)(C)O)nc4)no3)c2cc1F` [A118, (5-{5-[5-fluoro-6-(2-methoxy-ethoxy)-1H-indazol-3-yl]-isoxazol-3-yl}-pyridin-2-yl)-[(S)-2-(1-hydroxy-1-methyl-ethyl)-azetidin-1-yl]-methanone]: the IC50 against c-Kit(V654A) came out at 7.1 nM; in assay [1], 640 nM.

As for `COCCOc1cc2[nH]nc(-c3cc(-c4ccc(C(=O)N5CC[C@@H]5C(C)(C)O)nc4)no3)c2cc1F` [A119, (5-{5-[5-fluoro-6-(2-methoxy-ethoxy)-1H-indazol-3-yl]-isoxazol-3-yl}-pyridin-2-yl)-[(R)-2-(1-hydroxy-1-methyl-ethyl)-azetidin-1-yl]-methanone], the results for the IC50 (against c-Kit(V654A); in assay [1]) were 12 nM and 340 nM, respectively.

For the compound `COCCOc1cc2[nH]nc(-c3cc(-c4ccc(C(=O)N5CC(c6ccncc6)C5)cc4)no3)c2cc1F` [A120, 5-fluoro-6-(2-methoxyethoxy)-3-(3-{4-[3-(pyridin-4-yl)azetidine-1-carbonyl]phenyl}-1,2-oxazol-5-yl)-1H-indazole], the IC50 on c-Kit(V654A) was 0.64 nM; in assay [1], 24 nM.

Turning to `COCCOc1cc2[nH]nc(-c3cc(-c4ccc(C(=O)N5CCS(=O)(=O)CC5C)cc4)no3)c2cc1F` (stereo not drawn) [A121, 4-(4-{5-[5-fluoro-6-(2-methoxyethoxy)-1H-indazol-3-yl]-1,2-oxazol-3-yl}benzoyl)-3-methyl-1lambda6-thiomorpholine-1,1-dione], the results for the IC50 (against c-Kit(V654A); in assay [1]) were 0.6 nM and 42 nM, respectively.

Regarding `COCCOc1cc2[nH]nc(-c3cc(-c4ccc(N5CCCN(C)CC5)cc4)no3)c2cc1F` [A123, 5-fluoro-6-(2-methoxyethoxy)-3-{3-[4-(4-methyl-1,4-diazepan-1-yl)phenyl]-1,2-oxazol-5-yl}-1H-indazole], the IC50 against c-Kit(V654A) came out at 0.39 nM; in assay [1], 38 nM.

As for `COCCOc1cc2[nH]nc(-c3cc(-c4ccc(N5CC[S+]([O-])CC5)cc4)no3)c2cc1F` [A127, 4-(4-{5-[5-fluoro-6-(2-methoxyethoxy)-1H-indazol-3-yl]-1,2-oxazol-3-yl}phenyl)-1lambda4-thiomorpholin-1-one], the IC50 at c-Kit(V654A) stood at 0.37 nM; in assay [1], 24 nM.

With `COCCOc1cc2[nH]nc(-c3cc(-c4ccc(N5CCC(O)CC5)cc4)no3)c2cc1F` [A128, 1-(4-{5-[5-fluoro-6-(2-methoxyethoxy)-1H-indazol-3-yl]-1,2-oxazol-3-yl}phenyl)piperidin-4-ol], the IC50 at c-Kit(V654A) stood at 0.79 nM; in assay [1], 100 nM.

For `COCCOc1cc2[nH]nc(-c3cc(-c4ccc(N=S5(=O)CCNCC5)cc4)no3)c2cc1F` [A129, 1-[(4-{5-[5-fluoro-6-(2-methoxyethoxy)-1H-indazol-3-yl]-1,2-oxazol-3-yl}phenyl)imino]-1lambda6-thiomorpholin-1-one], the IC50 at c-Kit(V654A) worked out at 1.7 nM; in assay [1] it was 80 nM.

As to `COCCOc1cc2[nH]nc(-c3cc(-c4ccc(N5CCS(=O)(=O)CC5)nc4)no3)c2cc1F` [A131, 4-(5-{5-[5-fluoro-6-(2-methoxyethoxy)-1H-indazol-3-yl]-1,2-oxazol-3-yl}pyridin-2-yl)-1lambda6-thiomorpholine-1,1-dione], the IC50 against c-Kit(V654A) amounted to 3 nM; in assay [1] it was 65 nM.

Regarding `COCCOc1cc2[nH]nc(-c3cc(-c4ccc(OCCN5CCS(=O)(=O)CC5)cc4)no3)c2cc1F` [A132, 4-[2-(4-{5-[5-fluoro-6-(2-methoxyethoxy)-1H-indazol-3-yl]-1,2-oxazol-3-yl}phenoxy)ethyl]-1lambda6-thiomorpholine-1,1-dione], the IC50 against c-Kit(V654A) amounted to 1.6 nM; in assay [1], 93 nM.

For `COCCOc1cc2[nH]nc(-c3cc(-c4ccc(OCCN5CCN(C)CC5)cc4)no3)c2cc1F` [A133, 5-fluoro-6-(2-methoxyethoxy)-3-(3-{4-[2-(4-methylpiperazin-1-yl)ethoxy]phenyl}-1,2-oxazol-5-yl)-1H-indazole], the IC50 against c-Kit(V654A) was 1 nM; in assay [1] it was 130 nM.

Consider `COCCOc1cc2[nH]nc(-c3cc(-c4ccc(OCCN5CCNCC5)cc4)no3)c2cc1F` [A134, 5-fluoro-6-(2-methoxyethoxy)-3-(3-{4-[2-(piperazin-1-yl)ethoxy]phenyl}-1,2-oxazol-5-yl)-1H-indazole], for which the IC50 was 1.5 nM on c-Kit(V654A) and 150 nM in assay [1].

Take `COCCOc1cc2[nH]nc(-c3cc(-c4cccc(C(=O)N(C)C)c4)no3)c2cc1F` [A135, 3-{5-[5-fluoro-6-(2-methoxy-ethoxy)-1H-indazol-3-yl]-isoxazol-3-yl}-N,N-dimethyl-benzamide]: the IC50 on c-Kit(V654A) is 4.9 nM; in assay [1] it was 340 nM.

For the compound `COCCOc1cc2[nH]nc(-c3cc(-c4ccc(-n5nc(C)ccc5=O)cc4)no3)c2cc1F` [A136, 2-(4-{5-[5-fluoro-6-(2-methoxy-ethoxy)-1H-indazol-3-yl]-isoxazol-3-yl}-phenyl)-6-methyl-2H-pyridazin-3-one], the IC50 against c-Kit(V654A) was found to be 5.9 nM; in assay [1], 140 nM.

As for `COCCOc1cc2[nH]nc(-c3cc(-c4cnn(C)c4)no3)c2cc1F` [A137, 5-fluoro-6-(2-methoxy-ethoxy)-3-[3-(1-methyl-1H-pyrazol-4-yl)-isoxazol-5-yl]-1H-indazole], the IC50 was determined as 7.6 nM on c-Kit(V654A) and 180 nM in assay [1].

Regarding `COCCOc1cc2[nH]nc(-c3cc(-c4ccc(N5CCCS5(=O)=O)cc4)no3)c2cc1F` [A138, 2-(4-{5-[5-fluoro-6-(2-methoxyethoxy)-1H-indazol-3-yl]-1,2-oxazol-3-yl}phenyl)-1lambda6,2-thiazolidine-1,1-dione], the IC50 on c-Kit(V654A) is 6.4 nM; in assay [1], 160 nM.

For the origin of these results see patent US20260042753A1 (Merck Patent GmbH, priority 2019, published 2026).
